This is an account of results in US11696881B2, “Oral care compositions comprising hops beta acids and fluoride ions” (The Procter & Gamble Company, priority 2019, dated 2023).

The experiment deals with plaque biofilm grown from pooled human saliva (3-day biofilm). In words: in vitro plaque glycolysis model (iPGRM): acid production and acid inhibition. The format is cell-based. The procedure:
Acid production and acid inhibition were determined with the in vitro plaque glycolysis model (iPGRM). The purpose of this technique is to provide a simple and quick method for determining if compounds have an influence on the metabolic pathways that plaque microorganisms utilize to produce toxins that adversely affect gingival health.
The in vitro plaque glycolysis model (iPGRM) is a technique in which plaque is grown from human saliva and treated with various agents to determine anti-glycolytic activity of treatments. When bacteria convert sugar into energy with the help of enzymes, acids are formed. These acids demineralize and damage the dental enamel. […]
A plaque biofilm was grown on glass rods from fresh pooled human saliva and Trypticase Soy Broth (TSB) at 37° C. over […] by dipping glass rods into and out of media in a reciprocating motion. […] The pH of the media solutions was then measured to determine the amount of glycolysis inhibition relative to a negative control.
On Day 1, new glass rods (5 mm×90 mm) were polished approximately 25 mm from the untapered end on a lathe with silicon carbide paper of 240, 320, 400, and 600 grit used sequentially. […] After polishing, rods were stored until ready to run test. […]

`[H]/N=C(\N/C(=N/[H])NCCCCCCNC(=N)NC(=N)Nc1ccc(Cl)cc1)Nc1ccc(Cl)cc1` [1% Chlorhexidine, Chlorhexidine]: the “Acid Production (ΔpH) Mean” value (Table 2, 2 min treatment with 1:5 slurry in water) was 0.30 ΔpH. The “Mean Acid Inhibition (%) Mean” value (Table 2, relative to negative control Crest Cavity Protection) is 80.77%.
